Test results published in patent publication US20250243196A1, “CITRON KINASE INHIBITORS” (The Cleveland Clinic Foundation, priority 2021, published 2025).

What was measured:
Test in all cases: KinaseProfiler panel
Format in all cases: biochemical
Conditions in all cases: activity remaining
CDK14/cyclinY(h) = CDK14/cyclinY(h) (Homo sapiens (Human), UniProt O94921); design: dose or concentration left out as unconfirmed
Mer(h) = Mer(h) (Homo sapiens (Human), UniProt Q12866); design: dose or concentration left out as unconfirmed
PKCε(h) = PKCε(h) (Homo sapiens (Human), UniProt Q02156); design: dose or concentration left out as unconfirmed
Flt1(h) = Flt1(h) (Homo sapiens (Human), UniProt P17948); design: dose or concentration left out as unconfirmed
Rsk2(h) = Rsk2(h) (Homo sapiens (Human), UniProt P51812); design: dose or concentration left out as unconfirmed
Rsk2(h), sequence (P51812 whole entry): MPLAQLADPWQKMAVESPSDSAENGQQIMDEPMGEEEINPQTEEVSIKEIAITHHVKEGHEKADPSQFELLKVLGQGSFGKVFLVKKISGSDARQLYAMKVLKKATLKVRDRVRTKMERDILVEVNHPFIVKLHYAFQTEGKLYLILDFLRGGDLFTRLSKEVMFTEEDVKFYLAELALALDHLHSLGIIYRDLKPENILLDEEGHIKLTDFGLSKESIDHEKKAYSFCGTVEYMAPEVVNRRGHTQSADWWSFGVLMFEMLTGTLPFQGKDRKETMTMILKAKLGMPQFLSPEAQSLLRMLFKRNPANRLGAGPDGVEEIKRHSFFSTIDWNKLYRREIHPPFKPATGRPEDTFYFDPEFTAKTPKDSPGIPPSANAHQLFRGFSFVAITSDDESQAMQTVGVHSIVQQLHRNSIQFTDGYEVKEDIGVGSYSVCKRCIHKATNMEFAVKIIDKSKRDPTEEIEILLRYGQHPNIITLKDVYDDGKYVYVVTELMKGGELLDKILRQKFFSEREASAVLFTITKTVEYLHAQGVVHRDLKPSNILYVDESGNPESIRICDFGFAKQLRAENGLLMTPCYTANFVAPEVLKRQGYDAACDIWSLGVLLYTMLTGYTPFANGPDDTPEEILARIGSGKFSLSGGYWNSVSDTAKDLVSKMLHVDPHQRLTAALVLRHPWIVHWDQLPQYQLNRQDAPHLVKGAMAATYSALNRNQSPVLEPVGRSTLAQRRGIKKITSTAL

PKBβ(h) = PKBβ(h) (Homo sapiens (Human), UniProt P31751); design: dose or concentration left out as unconfirmed
Pim-3(h) = Pim-3(h) (Homo sapiens (Human), UniProt Q86V86); design: dose or concentration left out as unconfirmed
SBK1(h) = SBK1(h) (Homo sapiens (Human), UniProt Q52WX2); design: dose or concentration left out as unconfirmed
MEK2(h) = MEK2(h) (Homo sapiens (Human), UniProt P36507); design: dose or concentration left out as unconfirmed
MEK2(h), sequence (P36507 whole entry): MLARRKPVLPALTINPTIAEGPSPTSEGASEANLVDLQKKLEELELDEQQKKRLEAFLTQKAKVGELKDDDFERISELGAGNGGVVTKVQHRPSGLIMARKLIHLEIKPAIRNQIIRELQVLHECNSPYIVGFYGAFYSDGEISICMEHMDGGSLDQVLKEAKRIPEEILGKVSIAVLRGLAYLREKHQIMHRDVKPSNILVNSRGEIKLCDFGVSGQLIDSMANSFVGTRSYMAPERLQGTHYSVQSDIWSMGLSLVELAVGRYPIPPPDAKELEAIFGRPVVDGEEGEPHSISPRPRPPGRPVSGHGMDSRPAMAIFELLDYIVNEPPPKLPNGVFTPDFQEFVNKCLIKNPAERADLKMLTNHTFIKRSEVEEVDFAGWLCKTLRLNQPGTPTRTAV

MKK6(h) = MKK6(h) (Homo sapiens (Human), UniProt P52564); design: dose or concentration left out as unconfirmed
MARK3(h) = MARK3(h) (Homo sapiens (Human), UniProt P27448); design: dose or concentration left out as unconfirmed
Arg(h) = Arg(h) (Homo sapiens (Human), UniProt P42684); design: dose or concentration left out as unconfirmed
Lyn(h) = Lyn(h) (Homo sapiens (Human), UniProt P07948); design: dose or concentration left out as unconfirmed
IRAK4(h) = IRAK4(h) (Homo sapiens (Human), UniProt Q9NWZ3); design: dose or concentration left out as unconfirmed
NDR2(h) = NDR2(h) (Homo sapiens (Human), UniProt Q9Y2H1); design: dose or concentration left out as unconfirmed
Ros(h) = Ros(h) (Homo sapiens (Human), UniProt P08922); design: dose or concentration left out as unconfirmed
MuSK(h) = MuSK(h) (Homo sapiens (Human), UniProt O15146); design: dose or concentration left out as unconfirmed
MuSK(h), sequence (O15146 24-869): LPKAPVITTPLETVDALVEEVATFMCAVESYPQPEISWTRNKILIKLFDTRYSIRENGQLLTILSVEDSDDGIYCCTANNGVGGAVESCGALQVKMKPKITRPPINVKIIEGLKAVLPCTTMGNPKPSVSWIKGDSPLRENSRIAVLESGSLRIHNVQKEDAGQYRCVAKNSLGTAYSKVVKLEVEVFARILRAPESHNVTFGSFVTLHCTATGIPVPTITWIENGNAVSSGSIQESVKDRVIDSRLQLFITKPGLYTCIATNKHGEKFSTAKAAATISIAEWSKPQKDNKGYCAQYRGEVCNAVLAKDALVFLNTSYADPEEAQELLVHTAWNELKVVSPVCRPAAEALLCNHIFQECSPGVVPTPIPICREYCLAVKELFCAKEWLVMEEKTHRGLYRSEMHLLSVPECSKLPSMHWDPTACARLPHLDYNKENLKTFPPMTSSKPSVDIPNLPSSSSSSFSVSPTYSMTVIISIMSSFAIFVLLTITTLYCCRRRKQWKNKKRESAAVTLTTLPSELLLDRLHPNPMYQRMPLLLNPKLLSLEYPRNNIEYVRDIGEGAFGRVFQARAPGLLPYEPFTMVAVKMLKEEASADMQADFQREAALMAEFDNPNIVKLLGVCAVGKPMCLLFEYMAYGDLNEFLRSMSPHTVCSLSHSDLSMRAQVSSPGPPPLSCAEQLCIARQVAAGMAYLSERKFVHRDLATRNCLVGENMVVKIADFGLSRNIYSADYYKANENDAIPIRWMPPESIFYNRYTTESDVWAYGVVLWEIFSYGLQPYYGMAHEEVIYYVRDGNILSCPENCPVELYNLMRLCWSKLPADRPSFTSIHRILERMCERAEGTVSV

ACTR2(h) = ACTR2(h) (Homo sapiens (Human), UniProt P27037); design: dose or concentration left out as unconfirmed
PKBγ(h) = PKBγ(h) (Homo sapiens (Human), UniProt Q9Y243); design: dose or concentration left out as unconfirmed
PKBγ(h), sequence (Q9Y243 whole entry): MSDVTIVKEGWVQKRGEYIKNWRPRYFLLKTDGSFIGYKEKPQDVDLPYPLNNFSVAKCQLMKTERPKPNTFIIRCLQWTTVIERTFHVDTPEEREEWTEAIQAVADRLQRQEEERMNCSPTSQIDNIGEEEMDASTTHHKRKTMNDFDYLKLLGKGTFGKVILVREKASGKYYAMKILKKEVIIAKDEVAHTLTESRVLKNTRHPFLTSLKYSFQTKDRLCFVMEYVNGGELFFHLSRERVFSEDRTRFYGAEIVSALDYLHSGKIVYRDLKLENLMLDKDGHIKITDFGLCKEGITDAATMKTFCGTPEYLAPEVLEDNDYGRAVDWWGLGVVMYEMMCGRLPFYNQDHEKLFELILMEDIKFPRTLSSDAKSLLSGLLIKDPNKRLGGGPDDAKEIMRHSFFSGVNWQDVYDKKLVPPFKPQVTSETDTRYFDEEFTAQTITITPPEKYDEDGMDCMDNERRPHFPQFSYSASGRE

TAO2(h) = TAO2(h) (Homo sapiens (Human), UniProt Q9UL54)
PKCθ(h) = PKCθ(h) (Homo sapiens (Human), UniProt Q04759); design: dose or concentration left out as unconfirmed
CaMKK1(h) = CaMKK1(h) (Homo sapiens (Human), UniProt Q8N5S9); design: dose or concentration left out as unconfirmed
TAF1L(h) = TAF1L(h) (Homo sapiens (Human), UniProt Q8IZX4); design: dose or concentration left out as unconfirmed
MST3(h) = MST3(h) (Homo sapiens (Human), UniProt Q9Y6E0); design: dose or concentration left out as unconfirmed
MST3(h), sequence (Q9Y6E0 whole entry): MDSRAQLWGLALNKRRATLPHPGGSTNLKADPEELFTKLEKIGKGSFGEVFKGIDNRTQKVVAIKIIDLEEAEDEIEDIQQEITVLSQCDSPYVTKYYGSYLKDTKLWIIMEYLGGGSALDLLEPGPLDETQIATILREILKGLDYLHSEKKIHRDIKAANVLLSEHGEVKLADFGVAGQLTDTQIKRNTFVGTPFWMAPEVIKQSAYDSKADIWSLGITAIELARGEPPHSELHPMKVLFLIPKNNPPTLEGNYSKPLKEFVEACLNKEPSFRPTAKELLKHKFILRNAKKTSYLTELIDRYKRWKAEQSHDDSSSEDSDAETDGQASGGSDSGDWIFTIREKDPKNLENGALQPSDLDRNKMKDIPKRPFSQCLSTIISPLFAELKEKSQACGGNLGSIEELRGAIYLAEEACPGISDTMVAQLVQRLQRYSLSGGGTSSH

CaMKIV(h) = CaMKIV(h) (Homo sapiens (Human), UniProt Q16566); design: dose or concentration left out as unconfirmed
FGFR2(h) = FGFR2(h) (Homo sapiens (Human), UniProt P21802); design: dose or concentration left out as unconfirmed
FGFR2(h), sequence (P21802 22-821): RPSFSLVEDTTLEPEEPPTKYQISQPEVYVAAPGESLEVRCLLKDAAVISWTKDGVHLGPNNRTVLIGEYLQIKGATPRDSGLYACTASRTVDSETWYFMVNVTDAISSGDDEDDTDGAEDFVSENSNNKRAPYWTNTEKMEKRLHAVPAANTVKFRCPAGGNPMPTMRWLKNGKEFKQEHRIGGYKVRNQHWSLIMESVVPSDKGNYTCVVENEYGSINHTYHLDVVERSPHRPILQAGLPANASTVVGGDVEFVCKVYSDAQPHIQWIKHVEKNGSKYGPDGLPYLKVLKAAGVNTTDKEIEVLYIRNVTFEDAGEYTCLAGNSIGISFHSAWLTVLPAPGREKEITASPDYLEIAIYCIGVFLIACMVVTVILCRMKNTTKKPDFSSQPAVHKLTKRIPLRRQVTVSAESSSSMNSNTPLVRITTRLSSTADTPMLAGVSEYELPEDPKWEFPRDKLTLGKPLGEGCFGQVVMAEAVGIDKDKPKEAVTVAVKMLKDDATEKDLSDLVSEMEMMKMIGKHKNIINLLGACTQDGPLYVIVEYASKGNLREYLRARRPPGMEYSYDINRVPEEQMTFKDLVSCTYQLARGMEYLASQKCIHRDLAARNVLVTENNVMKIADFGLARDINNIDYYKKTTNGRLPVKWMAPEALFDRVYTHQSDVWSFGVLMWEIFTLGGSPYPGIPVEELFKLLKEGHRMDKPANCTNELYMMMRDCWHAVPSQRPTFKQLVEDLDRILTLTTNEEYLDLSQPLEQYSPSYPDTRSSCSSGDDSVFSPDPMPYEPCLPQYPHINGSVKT

AMPKα2(h) = AMPKα2(h) (Homo sapiens (Human), UniProt P54646); design: dose or concentration left out as unconfirmed
MYO3B(h) = MYO3B(h) (Homo sapiens (Human), UniProt Q8WXR4); design: dose or concentration left out as unconfirmed
PEK(h) = PEK(h) (Homo sapiens (Human), UniProt Q9NZJ5); design: dose or concentration left out as unconfirmed
FGFR3(h) = FGFR3(h) (Homo sapiens (Human), UniProt P22607); design: dose or concentration left out as unconfirmed
ALK6(h) = ALK6(h) (Homo sapiens (Human), UniProt O00238); design: dose or concentration left out as unconfirmed
ALK6(h), sequence (O00238 14-502): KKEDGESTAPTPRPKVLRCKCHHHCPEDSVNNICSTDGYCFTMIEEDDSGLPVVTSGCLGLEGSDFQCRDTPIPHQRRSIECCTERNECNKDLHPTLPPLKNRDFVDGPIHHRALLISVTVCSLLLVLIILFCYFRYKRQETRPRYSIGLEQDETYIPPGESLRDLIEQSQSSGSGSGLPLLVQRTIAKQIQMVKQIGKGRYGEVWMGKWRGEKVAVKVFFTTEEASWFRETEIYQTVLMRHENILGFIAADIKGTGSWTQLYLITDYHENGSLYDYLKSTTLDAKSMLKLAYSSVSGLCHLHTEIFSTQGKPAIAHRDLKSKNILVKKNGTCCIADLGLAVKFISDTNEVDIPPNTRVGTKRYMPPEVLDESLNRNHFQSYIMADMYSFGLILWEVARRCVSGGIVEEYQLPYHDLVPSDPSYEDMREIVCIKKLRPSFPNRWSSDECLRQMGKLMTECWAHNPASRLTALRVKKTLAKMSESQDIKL

B-Raf(h) = B-Raf(h) (Homo sapiens (Human), UniProt P15056); design: dose or concentration left out as unconfirmed
PKCι(h) = PKCι(h) (Homo sapiens (Human), UniProt P41743); design: dose or concentration left out as unconfirmed
PKCι(h), sequence (P41743 whole entry): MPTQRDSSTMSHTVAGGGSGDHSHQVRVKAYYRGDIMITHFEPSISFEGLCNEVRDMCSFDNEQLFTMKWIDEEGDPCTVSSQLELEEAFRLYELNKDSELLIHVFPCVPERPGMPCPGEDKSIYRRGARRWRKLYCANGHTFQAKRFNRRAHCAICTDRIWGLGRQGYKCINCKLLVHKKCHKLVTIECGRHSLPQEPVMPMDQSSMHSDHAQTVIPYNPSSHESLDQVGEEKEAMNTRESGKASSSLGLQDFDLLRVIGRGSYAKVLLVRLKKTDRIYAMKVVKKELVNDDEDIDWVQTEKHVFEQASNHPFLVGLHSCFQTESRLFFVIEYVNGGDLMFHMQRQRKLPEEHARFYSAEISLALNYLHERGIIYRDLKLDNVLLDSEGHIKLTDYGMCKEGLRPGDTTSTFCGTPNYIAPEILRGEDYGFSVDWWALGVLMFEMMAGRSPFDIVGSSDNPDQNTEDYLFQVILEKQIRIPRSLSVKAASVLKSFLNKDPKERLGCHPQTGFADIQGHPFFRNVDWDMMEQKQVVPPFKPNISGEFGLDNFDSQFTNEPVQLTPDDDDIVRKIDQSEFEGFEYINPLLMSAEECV

Question: What does the source list for `Cc1cc2c(-c3ccc(NC(=O)[C@H](N)CC(C)(C)C)cc3C)ccnc2[nH]1` [Compound F-90, (2R)-2-Amino-4,4-dimethyl-N-[3-methyl-4-(2-methyl-1H-pyrrolo[2,3-b]pyridin-4-yl)phenyl]pentanamide]?
Answer: % Activity (CDK14/cyclinY(h)): 91%; % Activity (Mer(h)): 105%; % Activity (PKCε(h)): 97%; % Activity (Flt1(h)): 125%; % Activity (Rsk2(h)): 88%; % Activity (PKBβ(h)): 109%; % Activity (Pim-3(h)): 103%; % Activity (SBK1(h)): 97%; % Activity (MEK2(h)): 92%; % Activity (MKK6(h)): 101%; % Activity (MARK3(h)): 90%; % Activity (Arg(h)): 72%; % Activity (Lyn(h)): 80%; % Activity (IRAK4(h)): 90%; % Activity (NDR2(h)): 107%; % Activity (Ros(h)): 97%; % Activity (MuSK(h)): 96%; % Activity (ACTR2(h)): 96%; % Activity (PKBγ(h)): 101%; % Activity (TAO2(h)): 90%; % Activity (PKCθ(h)): 103%; % Activity (CaMKK1(h)): 89%; % Activity (TAF1L(h)): 101%; % Activity (MST3(h)): 85%; % Activity (CaMKIV(h)): 99%; % Activity (FGFR2(h)): 89%; % Activity (AMPKα2(h)): 117%; % Activity (MYO3B(h)): 79%; % Activity (PEK(h)): 91%; % Activity (FGFR3(h)): 86%; % Activity (ALK6(h)): 74%; % Activity (B-Raf(h)): 110%; % Activity (PKCι(h)): 110%
